Reference: PMC4780082, “Evidence for Tautomerisation of Glutamine in BLUF Blue Light Receptors by Vibrational Spectroscopy and Computational Chemistry” (Scientific Reports, 2016)

Target: T1, BlrB (Cereibacter sphaeroides, UniProt Q3IYE4)
T1 construct: full-length short BLUF protein, residues 1-140, pET28a(+), His-tag removed by thrombin, E. coli BL21(DE3) glnA knockout; unlabelled and 15N-Gln samples
Test: light-induced FTIR difference spectroscopy of the reconstituted holoprotein
Assay type: binding
Conditions: FAD added for full reconstitution; flavin C4=O band of bound chromophore; pH 8.0; 20 °C

T1 sequence (Q3IYE4 entry or part of it): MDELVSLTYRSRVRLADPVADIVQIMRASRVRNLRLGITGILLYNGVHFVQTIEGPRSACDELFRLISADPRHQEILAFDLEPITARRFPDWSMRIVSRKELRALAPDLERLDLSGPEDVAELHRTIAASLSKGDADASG

Cc1cc2nc3c(=O)[nH]c(=O)nc-3n(C[C@H](O)[C@H](O)[C@H](O)COP(=O)(O)OP(=O)(O)OC[C@H]3O[C@@H](n4cnc5c(N)ncnc54)[C@H](O)[C@@H]3O)c2cc1C [flavin adenine dinucleotide]
light-induced FTIR difference spectroscopy of the reconstituted holoprotein: includes strong contributions from the C4=O stretch of flavin with an amide I band
